Assay results taken from patent US9615577B2, “Herbicidally active cyclic dione compounds, or derivatives therefor, substituted by a phenyl which has an alkynyl-containing substituent” (Syngenta Limited, priority 2012, dated 2017).

Key:
Format in all cases: in vivo
[1] = system: Alopecurus myosuroides (ALOMY); assay: Test 1A glasshouse assay for herbicidal activity, post-emergence; conditions: 312 h, evaluated after 13 days, read-out: percentage phytotoxicity ALOMY
Procedure, shortened: (§1)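 Test plants grew from seed in standard soil under controlled glasshouse conditions (24/16 °C, 14 h light, 65% humidity) and received an aqueous acetone (50:50) spray with 0.5% Tween 20, either one day after sowing or after eight days. Damage was rated visually as percent phytotoxicity 13 days later.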

[2] = system: Amaranthus retroflexus (AMARE); assay: as above; conditions: 312 h, evaluated after 13 days, read-out: percentage phytotoxicity AMARE
Procedure, shortened: as §1

[3] = system: Echinochloa crus-galli (ECHCG); assay: as above; conditions: 312 h, evaluated after 13 days, read-out: percentage phytotoxicity ECHCG
Procedure, shortened: as §1

[4] = system: Setaria faberi (SETFA); assay: as above; conditions: 312 h, evaluated after 13 days, read-out: percentage phytotoxicity SETFA
Procedure, shortened: as §1

[5] = system: Beta vulgaris (BEAVA, sugar beet); assay: Test 1B glasshouse assay for herbicidal activity, pre-emergence; conditions: 480 h, 20 DAA, read-out: percentage phytotoxicity BEAVA
Protocol: (§2) Seeds of a variety of monocotyledonous and dicotyledonous test plants are sown in standard soil in pots. The plants are cultivated for one day (for pre-emergence) or for about 12 days (range=10-13 days) (for post-emergence) under controlled conditions in a glasshouse (warm climate species at 24/18° C., cool climate species at 20/16° C., both at day/night; 16 hours light; 65% humidity).
(§3) An “instant formulation”, known as the “IF50”, containing 50 g/liter (i.e. 5% w/v) of the “technical” (i.e. unformulated) active ingredient is prepared by dissolving the active ingredient in a mixture of organic solvents and emulsifier, details of which are provided in the Table below. This IF50 is then mixed with a small, variable amount of acetone to aid dissolution, before addition of a 0.2% v/v aqueous solution of the adjuvant X-77 (which is a mixture of alkyl aryl polyoxyethylene glycols and free fatty acids in isopropanol, CAS Registry number 11097-66-8), as the aqueous diluent, to form an aqueous spray solution which contains a predetermined concentration of the active ingredient (which varies depending on the application rate of the active ingredient to the plants) and 0.2% v/v of the adjuvant X-77. This aqueous spray solution is then sprayed onto the plants, after one day's cultivation (for pre-emergence) or after about 12 days' cultivation (for post-emergence).
(§4) The test plants are then grown on, in a glasshouse (greenhouse) under controlled conditions (at either 24/18° C. or 20/16° C. (day/night) as mentioned above; 16 hours light; 65% humidity) and are watered twice daily. Either 15 days after application of the herbicide (15 DAA) (for post-emergence), or 20 days after application of the herbicide (20 DAA) (for pre-emergence), the test plants are evaluated visually, and an assessed percentage phytotoxicity score is given for each herbicidal application on each plant species (where 100%=total damage to plant; 0%=no damage to plant).
(§5) Cool climate crop plants: Triticum aestivum (TRZAW, winter wheat), Brassica napus (BRSNN, rape, also called oilseed rape or rapeseed), Beta vulgaris (BEAVA, sugar beet).

[6] = system: Brassica napus (BRSNN, rape); assay: as above; conditions: 480 h, 20 DAA, read-out: percentage phytotoxicity BRSNN
Protocol: as §2, §3, §4, §5

[7] = system: Triticum aestivum (TRZAW, winter wheat); assay: as above; conditions: 480 h, 20 DAA, read-out: percentage phytotoxicity TRZAW
Protocol: as §2, §3, §4, §5

[8] = system: Glycine max (GLXMA, soybean); assay: as above; conditions: 480 h, 20 DAA, read-out: percentage phytotoxicity GLXMA
Protocol: as §2, §3, §4
(§6) Warm climate crop plants: Glycine max (GLXMA, soybean).

[9] = system: Alopecurus myosuroides (ALOMY); assay: as above; conditions: 480 h, 20 DAA, read-out: percentage phytotoxicity ALOMY
Protocol: as §2, §3, §4
(§7) Cool climate (“cool season”) grassy monocotyledonous weeds: Alopecurus myosuroides (ALOMY), Avena fatua (AVEFA), Lolium perenne (LOLPE).

[10] = system: Avena fatua (AVEFA); assay: as above; conditions: 480 h, 20 DAA, read-out: percentage phytotoxicity AVEFA
Protocol: as §2, §3, §4, §7

[11] = system: Lolium perenne (LOLPE); assay: as above; conditions: 480 h, 20 DAA, read-out: percentage phytotoxicity LOLPE
Protocol: as §2, §3, §4, §7

[12] = system: Beta vulgaris (BEAVA, sugar beet); assay: Test 1B glasshouse assay for herbicidal activity, post-emergence; conditions: 360 h; for plant injury at 30 g/ha: 30 g/ha application rate
Protocol: as §2, §3, §4, §5

[13] = system: Brassica napus (BRSNN, rape); assay: as above; conditions: 360 h; for plant injury at 30 g/ha: 30 g/ha application rate
Protocol: as §2, §3, §4, §5

[14] = system: Triticum aestivum (TRZAW, winter wheat); assay: as above; conditions: 360 h; for plant injury at 30 g/ha: 30 g/ha application rate
Protocol: as §2, §3, §4, §5

[15] = system: Glycine max (GLXMA, soybean); assay: as above; conditions: 360 h; for plant injury at 30 g/ha: 30 g/ha application rate
Protocol: as §2, §3, §4, §6

[16] = system: Digitaria sanguinalis (DIGSA); assay: as above; conditions: 360 h; for pest or weed control at 30 g/ha: 30 g/ha application rate
Protocol: as §2, §3, §4
(§8) Warm climate (“warm season”) grassy monocotyledonous weeds: Setaria faberi (SETFA), SORVU (Sorghum bicolor (L.) Moench ssp. Bicolor, or Sorghum vulgare Pers.), Digitaria sanguinalis (DIGSA), Echinochloa crus-galli (ECHCG), and Brachiaria plantaginea (BRAPL).

[17] = system: Setaria faberi (SETFA); assay: as above; conditions: 360 h; for pest or weed control at 30 g/ha: 30 g/ha application rate
Protocol: as §2, §3, §4, §8

For `CC#Cc1cc(C)c(C2C(=O)CC(CC3CCOCC3)CC2=O)c(C)c1` (centres unmarked) [Compound A-9], the pest or weed control at 250 g/ha [1] was 100%, the pest or weed control at 250 g/ha [2] was 30% and the pest or weed control at 250 g/ha [3] was 100%. For the same compound, the pest or weed control at 250 g/ha [4] was 90%, the plant injury at 125 g/ha ([5]; 125 g/ha) was 20% and the plant injury at 125 g/ha ([6]; 125 g/ha) was 80%. The plant injury at 125 g/ha ([7]; 125 g/ha) was 20%, the plant injury at 125 g/ha ([8]; 125 g/ha) was 10% and the pest or weed control at 125 g/ha ([9]; 125 g/ha) was 80%. It also gave a pest or weed control at 125 g/ha ([10]; 125 g/ha) of 80%, a pest or weed control at 125 g/ha ([11]; 125 g/ha) of 100% and a plant injury at 30 g/ha [12] of 0%. It also gave a plant injury at 30 g/ha [13] of 50%, a plant injury at 30 g/ha [14] of 60% and a plant injury at 30 g/ha [15] of 60%. The pest or weed control at 30 g/ha [16] was 100% and the pest or weed control at 30 g/ha [17] was 90%.

In the case of `CC#Cc1cc(Cl)c(C2C(=O)C3CCC(C3)C2=O)c(OCC)c1` (centres unmarked) [Compound A-16], the pest or weed control at 30 g/ha [1] is reported as 90%, the pest or weed control at 250 g/ha [1] is reported as 100% and the pest or weed control at 30 g/ha [2] is reported as 30%. It also gave a pest or weed control at 250 g/ha [2] of 70%, a pest or weed control at 30 g/ha [3] of 100% and a pest or weed control at 250 g/ha [3] of 100%. For the same compound, the pest or weed control at 30 g/ha [4] was 100%, the pest or weed control at 250 g/ha [4] was 100% and the plant injury at 250 g/ha ([5]; 250 g/ha) was 0%. For the same compound, the plant injury at 250 g/ha ([6]; 250 g/ha) was 0%, the plant injury at 250 g/ha ([7]; 250 g/ha) was 0% and the plant injury at 250 g/ha ([8]; 250 g/ha) was 20%. It also gave a pest or weed control at 250 g/ha ([9]; 250 g/ha) of 50%, a pest or weed control at 250 g/ha ([10]; 250 g/ha) of 40% and a pest or weed control at 250 g/ha ([11]; 250 g/ha) of 70%. It also gave a plant injury at 30 g/ha [12] of 0%, a plant injury at 125 g/ha ([12]; 125 g/ha application rate) of 0% and a plant injury at 30 g/ha [13] of 10%. The plant injury at 125 g/ha ([13]; 125 g/ha application rate) was 50%, the plant injury at 30 g/ha [14] was 10% and the plant injury at 125 g/ha ([14]; 125 g/ha application rate) was 60%. For the same compound, the plant injury at 30 g/ha [15] was 0%, the plant injury at 125 g/ha ([15]; 125 g/ha application rate) was 30% and the pest or weed control at 30 g/ha [16] was 80%. The pest or weed control at 125 g/ha ([16]; 125 g/ha application rate) was 100%, the pest or weed control at 30 g/ha [17] was 80% and the pest or weed control at 125 g/ha ([17]; 125 g/ha application rate) was 100%.

In the case of `CC#Cc1cc(Cl)c(C2C(=O)CC3(CCOCC3)CC2=O)c(OC)c1` [Compound A-20, 9-(2-Chloro-6-methoxy-4-prop-1-ynyl-phenyl)-3-oxa-spiro[5.5]undecane-8,10-dione], the pest or weed control at 8 g/ha ([1]; 8 g/ha) is reported as 90%, the pest or weed control at 30 g/ha [1] is reported as 100% and the pest or weed control at 250 g/ha [1] is reported as 100%. It also gave a pest or weed control at 8 g/ha ([2]; 8 g/ha) of 10%, a pest or weed control at 30 g/ha [2] of 80% and a pest or weed control at 250 g/ha [2] of 80%. It also gave a pest or weed control at 8 g/ha ([3]; 8 g/ha) of 100%, a pest or weed control at 30 g/ha [3] of 100% and a pest or weed control at 250 g/ha [3] of 100%. The pest or weed control at 8 g/ha ([4]; 8 g/ha) was 90%, the pest or weed control at 30 g/ha [4] was 100% and the pest or weed control at 250 g/ha [4] was 100%.
